Source: patent publication US20210381051A1, “DNA METHYLATION BIOMARKER OF AGING FOR HUMAN EX VIVO AND IN VIVO STUDIES” (The Regents of the University of California, priority 2018, published 2021)

Legend:
[1] = test system: primary human keratinocytes; assay: Keratinocyte proliferation rate and proliferative capacity (population doublings); format: cell-based; settings: rapamycin 25 nM, Y-27632 1 μM
Source text: The availability of an epigenetic clock, such as the skin & blood clock, which is applicable to cultured cells, allows epigenetic ageing to be studied beyond the purely descriptive nature afforded by epidemiological analyses alone. Towards this end, we have established in vitro epigenetic ageing systems using primary human cells. One of this is based on primary keratinocytes that are derived from healthy human skins. […] The opposing effects of these compounds on keratinocyte proliferation present us with the opportunity to test whether cellular proliferation rate impacts epigenetic ageing while carrying out our primary aim of interrogating the effects of rapamycin on epigenetic ageing.
(§1) Primary keratinocytes were isolated from human neonatal foreskins from three donors (Donor A, B and C) and were put in culture with standard media or media supplemented with rapamycin, Y-27632 or a cocktail of both of these compounds (methods). The cells were passaged continually and population doublings at each passage recorded. […] DNA methylation profiles from a selection of passages of these cells were obtained and analysed with the skin & blood clock. […]
(§2) Primary human neonatal fibroblasts were isolated from circumcised foreskins. […] Upon confluence, cells were trypsinised, counted and 100,000 were seeded into fresh fibronectin/collagen-coated plates. […]

[2] = test system: primary human keratinocytes from neonatal foreskins; assay: Ex vivo human cell aging assay: DNAm age of cultured keratinocytes by the skin & blood clock; format: cell-based
Source text: (§3) FIG. 6. Ex vivo study of compounds that may accelerate or decelerate epigenetic aging. A) Effect of Y-27632 and rapamycin treatment on neonatal keratinocytes measured by the skin & blood clock. B) Effect of oestrogen on neonatal dermal fibroblasts.
(§4) By its ability to quantitatively track aging of human cells ex vivo, the skin & blood clock lends itself to be used in the development of an ex vivo human cell aging assay that can be used for testing and screening compounds with anti-aging or pro-aging effects.
as §1, with “recorded. In time all cells, regardless of donor or treatment underwent replicative senescence, where they ceased to increase their numbers after at least 2 weeks in culture with regular replenishment of media.” for “recorded.”
as §2

[3] = test system: neonatal dermal fibroblasts; assay: Ex vivo epigenetic aging of fibroblasts by the skin & blood clock; format: cell-based, human; settings: suggestive evidence
Source text: as §3, §4

HGPS patients = settings: after 2.2 years of follow-up, 27% death in the matched untreated group; cited from earlier work
[4] = test system: progerin accumulation in HGPS cells; settings: in vitro studies [41, 42]; cited from earlier work

C[C@@H](N)[C@H]1CC[C@H](C(=O)Nc2ccncc2)CC1 [Y-27632]
cellular proliferation rate (population doublings per unit of time) [1]: increases it
epigenetic aging (skin & blood clock), FIG. 6A ([2]; Example 1, dividing / neonatal keratinocytes, suggestive evidence): appears to increase epigenetic aging
epigenetic ageing (skin & blood clock) ([2]; Example 2, neonatal foreskin keratinocytes of three donors, CnT-07 medium, rapamycin 25 nM, Y-27632 1 μM, present for the entire duration): did not impose any appreciable effect

estrogen
epigenetic aging (skin & blood clock), FIG. 6B [3]: associated with slower epigenetic aging

NC(=O)N1CCC(CC(=O)N2CCC([C@H]3c4ncc(Br)cc4CCc4cc(Cl)cc(Br)c43)CC2)CC1 [lonafarnib]
death in the treated group (HGPS patients): 6.3%

CN(C)C(=N)N=C(N)N [metformin]
progerin accumulation and cellular HGPS phenotypes [4]: reduction of progerin accumulation
